In patent publication US9380783B2, “Herbicidal composition” (priority 2012, dated 2016):

Assays:
Format in all cases: in vivo
[1] = test system: sunn-hemp (Crotalaria juncea L.); experiment: Test Example 1: soil treatment, sunn-hemp pot test; settings: 28th day after treatment, read-out: Growth inhibition rate of sunn-hemp (%) Measured value
Text: On the 28th day after treatment, the state of growth of the sunn-hemp was visually observed to determine the growth inhibition rate (%) in accordance with the following evaluation standard. The growth inhibition rate (%) (measured value) and the growth inhibition rate (%) (calculated value) calculated by the Colby's formula are shown in Table 1.

[2] = test system: ivy-leaved morningglory (Ipomoea hederacea (L.) Jacq.); experiment: Test Example 7: soil treatment, ivy-leaved morningglory pot test; settings: read-out: Growth inhibition rate of ivy-leaved morningglory (%) Measured value
Method: (§1) Upland field soil was put into a 1/300,000 ha pot, and seeds of ivy-leaved morningglory (Ipomoea hederacea (L.) Jacq.) were sown. On the next day, predetermined amounts of the above formulations respectively containing nicosulfuron, prosulfuron and bicyclopyrone were diluted with water (in an amount corresponding to 1,000 L/ha) and applied for soil treatment by a small sprayer.

[3] = test system: common lespedeza (Lespedeza striata (Thunb.) Hook. et Arn.); experiment: Test Example 10: foliar treatment, common lespedeza pot test; settings: Kummerowia striata, foliar treatment at 4.0-leaf stage, 14th day after treatment, read-out: Growth inhibition rate of common lespedeza (%) Measured value
Method: (§2) Upland field soil was put into a 1/1,000,000 ha pot, and seeds of common lespedeza (Lespedeza striata (Thunb.) Hook. et Arn.) were sown. When the common lespedeza reached 4.0-leaf stage, predetermined amounts of the above formulations respectively containing nicosulfuron, prosulfuron and dicamba were diluted with water (in an amount corresponding to 300 L/ha) and applied for foliar treatment by a small sprayer.

[4] = test system: korean lespedeza (Kummerowia stipulacea (Maxim.) Makino); experiment: Test Example 8: soil treatment, korean lespedeza pot test; settings: read-out: Growth inhibition rate of korean lespedeza (%) Measured Value
Method: as §1, with “korean lespedeza (Kummerowia stipulacea (Maxim.) Makino)” for “ivy-leaved morningglory (Ipomoea hederacea (L.) Jacq.)”

[5] = test system: black nightshade (Solanum nigrum L.); experiment: Test Example 5: soil treatment, black nightshade pot test; settings: 28th day after treatment, read-out: Growth inhibition rate of black nightshade (%) Measured value
Text: Upland field soil was put into a 1/300,000 ha pot, and seeds of black nightshade (Solanum nigrum L.) were sown. […] On the 28th day after treatment, the state of growth of the black nightshade was visually observed to determine the growth inhibition rate (%).

[6] = test system: prickly sida (Sida spinosa L.); experiment: Test Example 4: soil treatment, prickly sida pot test; settings: read-out: Growth inhibition rate of prickly sida (%) Measured value
Method: as §1, with “prickly sida (Sida spinosa L.)” for “ivy-leaved morningglory (Ipomoea hederacea (L.) Jacq.)”, “prosulfuron, dicamba” for “prosulfuron”

[7] = test system: wild oat (Avena fatua L.); experiment: Test Example 3: soil treatment, wild oat pot test; settings: 28th day after treatment, read-out: Growth inhibition rate of wild oat (%) Measured value
Text: (§3) Upland field soil was put into a 1/300,000 ha pot, and seeds of wild oat (Avena fatua L.) were sown. […] On the 28th day after treatment, the state of growth of the wild oat was visually observed to determine the growth inhibition rate (%).

[8] = test system: wild oat (Avena fatua L.); experiment: Test Example 2: soil treatment, wild oat pot test; settings: 28th day after treatment, read-out: Growth inhibition rate of wild oat (%) Measured value
Text: as §3

[9] = test system: annual ragweed (Ambrosia artemisiifolia L.); experiment: Test Example 6: soil treatment, annual ragweed pot test; settings: 28th day after treatment, read-out: Growth inhibition rate of annual ragweed (%) Measured value
Method: as §1, with “annual ragweed (Ambrosia artemisiifolia L.)” for “ivy-leaved morningglory (Ipomoea hederacea (L.) Jacq.)”, “bromoxynil-octanoate” for “bicyclopyrone”

[10] = test system: annual ragweed (Ambrosia artemisiifolia L.); experiment: Test Example 9: foliar treatment, annual ragweed pot test; settings: foliar treatment at 6.0 to 8.0-leaf stage, 14th day after treatment, read-out: Growth inhibition rate of annual ragweed (%) Measured value
Method: as §2, with “annual ragweed (Ambrosia artemisiifolia L.)” for “common lespedeza (Lespedeza striata (Thunb.) Hook. et Arn.)”, “annual ragweed” for “common lespedeza”, “6.0 to 8.0-leaf” for “4.0-leaf”, “mesotrione” for “dicamba”
On the 14th day after treatment, the state of growth of the annual ragweed was visually observed to determine the growth inhibition rate (%). The growth inhibition rate (%) (measured value) and the growth inhibition rate (%) calculated in the same manner as in the above Test Example 1 are shown in Table 9.

[11] = test system: velvetleaf (Abutilon theophrasti Medic.); experiment: Test Example 11: foliar treatment, velvetleaf pot test; settings: read-out: Growth inhibition rate of velvetleaf (%) Measured value
Method: Upland field soil was put into a 1/1,000,000 ha pot, and seeds of velvetleaf (Abutilon theophrasti Medic.) were sown. When the velvetleaf reached 5.0 to 5.3-leaf stage, predetermined amounts of the above formations respectively containing nicosulfuron, prosulfuron, dicamba, bromoxynil-octanoate and bicyclopyrone were diluted with water (in an amount corresponding to 300 L/ha) and applied for foliar treatment by a small sprayer.

[12] = dose 2.5 g/ha, soil treatment, 28th day after treatment
[13] = soil treatment, 28th day after treatment
[14] = dose 100 g/ha, soil treatment, 28th day after treatment

Molecule `COc1nc(C)nc(NC(=O)NS(=O)(=O)c2ccccc2CCC(F)(F)F)n1` [Prosulfuron, 1-(4-methoxy-6-methyl-1,3,5-triazin-2-yl)-3-[2-(3,3,3-trifluoropropyl)phenylsulfonyl]urea] has an inhibition at 50 g/ha ([1]; dose 50 g/ha) of 60%, an inhibition at 50 g/ha ([2]; dose 50 g/ha, soil treatment, 14th day after treatment) of 50% and an inhibition at 10 g/ha ([3]; dose 10 g/ha) of 10%. For the same molecule, the inhibition at 15 g/ha ([3]; dose 15 g/ha) was 13%, the inhibition at 2.5 g/ha [4, 12] was 50% and the inhibition at 50 g/ha ([5]; dose 50 g/ha) was 20%. The inhibition at 2.5 g/ha [6, 12] was 20%, the inhibition at 15 g/ha ([6]; dose 15 g/ha, soil treatment, 28th day after treatment) was 20% and the inhibition at 50 g/ha [6, 13] was 40%. It also gave an inhibition at 15 g/ha ([7]; dose 15 g/ha) of 0%, an inhibition at 2.5 g/ha ([8]; dose 2.5 g/ha) of 0% and an inhibition at 2.5 g/ha ([9]; dose 2.5 g/ha) of 78%. The inhibition at 15 g/ha ([9]; dose 15 g/ha) was 93%, the inhibition at 10 g/ha ([10]; dose 10 g/ha) was 55% and the inhibition at 15 g/ha ([10]; dose 15 g/ha) was 53%.

Molecule `COCCOCc1nc(C(F)(F)F)ccc1C(=O)C1=C(O)C2CCC(C2)C1=O` (centres unmarked) [Bicyclopyrone, 4-hydroxy-3-{2-[(2-methoxyethoxy)methyl]-6-(trifluoromethyl)-3-pyridylcarbonyl}bicyclo[3.2.1]oct-3-en-2-one] has an inhibition at 100 g/ha ([11]; foliar) of 40%, an inhibition at 25 g/ha ([2]; soil) of 5% and an inhibition at 400 g/ha ([2]; soil) of 25%. The inhibition at 400 g/ha ([4]; soil) was 78% and the inhibition at 25 g/ha ([6]; soil) was 25%.

In the case of `CCCCCCCC(=O)Oc1c(Br)cc(C#N)cc1Br` [Bromoxynil-octanoate, bromoxynil-octanoate], the inhibition at 200 g/ha ([11]; dose 200 g/ha, foliar treatment at 5.0 to 5.3-leaf stage, 20th day after treatment) is reported as 5%, the inhibition at 100 g/ha ([5]; dose 100 g/ha) is reported as 0% and the inhibition at 500 g/ha ([5]; dose 500 g/ha) is reported as 0%. It also gave an inhibition at 100 g/ha [9] of 0%, an inhibition at 200 g/ha ([9]; dose 200 g/ha) of 0% and an inhibition at 500 g/ha ([9]; dose 500 g/ha) of 0%.

With `COc1c(Cl)ccc(Cl)c1C(=O)O` [Dicamba, dicamba] the inhibition at 150 g/ha ([11]; dose 150 g/ha, foliar treatment at 5.0 to 5.3-leaf stage, 20th day after treatment) was 8%, the inhibition at 100 g/ha ([3]; dose 100 g/ha) was 23% and the inhibition at 150 g/ha ([3]; dose 150 g/ha) was 50%. The inhibition at 50 g/ha [6, 13] was 0%, the inhibition at 150 g/ha ([6]; dose 150 g/ha, soil treatment, 28th day after treatment) was 20% and the inhibition at 400 g/ha ([6]; dose 400 g/ha, soil treatment, 28th day after treatment) was 40%.

With `COc1cc(OC)nc(NC(=O)NS(=O)(=O)c2ncccc2C(=O)N(C)C)n1` [Nicosulfuron, 2-(4,6-dimethoxypyrimidin-2-ylcarbamoylsulfamoyl)-N,N-dimethylnicotinamide] the inhibition at 10 g/ha ([1]; dose 10 g/ha) was 30%, the inhibition at 10 g/ha ([2]; dose 10 g/ha, soil treatment, 14th day after treatment) was 0% and the inhibition at 30 g/ha ([3]; dose 30 g/ha) was 5%. It also gave an inhibition at 100 g/ha [4, 14] of 30%, an inhibition at 10 g/ha ([5]; dose 10 g/ha) of 20% and an inhibition at 10 g/ha ([6]; dose 10 g/ha, soil treatment, 28th day after treatment) of 10%. It also gave an inhibition at 30 g/ha ([6]; dose 30 g/ha, soil treatment, 28th day after treatment) of 10%, an inhibition at 100 g/ha [6, 14] of 20% and an inhibition at 30 g/ha ([7]; dose 30 g/ha) of 70%. It also gave an inhibition at 100 g/ha ([8]; dose 100 g/ha) of 80%, an inhibition at 30 g/ha ([9]; dose 30 g/ha) of 0% and an inhibition at 100 g/ha [9] of 0%. For the same molecule, the inhibition at 30 g/ha ([10]; dose 30 g/ha) was 0%.

`CS(=O)(=O)c1ccc(C(=O)C2C(=O)CCCC2=O)c([N+](=O)[O-])c1` [Mesotrione, 2-(4-mesyl-2-nitrobenzoyl)cyclohexane-1,3-dione] showed an inhibition at 150 g/ha ([1]; dose 150 g/ha) of 30%, an inhibition at 50 g/ha ([7]; dose 50 g/ha) of 0% and an inhibition at 25 g/ha ([8]; dose 25 g/ha) of 0%. The inhibition at 150 g/ha ([8]; dose 150 g/ha) was 0% and the inhibition at 75 g/ha ([10]; dose 75 g/ha) was 25%.
